From the NIST ThermoML archive (doi:10.1021/je700300y)

Test: xn = mol fraction of the nth substance listed
Conditions: 101 kPa, Liquid

CCO [ethanol] + O
mass density [kg/m3]
Conditions | 283.15 K | 288.15 K | 293.15 K | 298.15 K | 303.15 K | 308.15 K | 313.15 K
x2 = 0.0805 | 808.05 | 803.79 | 799.51 | 795.19 | 790.85 | 786.45 | 782.01
x2 = 0.1584 | 818.14 | 813.87 | 809.57 | 805.23 | 800.84 | 796.41 | 791.93
x2 = 0.2376 | 828.89 | 824.61 | 820.29 | 815.93 | 811.53 | 807.07 | 802.5
x2 = 0.3322 | 842.93 | 838.67 | 834.37 | 830.01 | 825.61 | 821.15 | 816.63
x2 = 0.4026 | 854.12 | 849.89 | 845.61 | 841.27 | 836.89 | 832.45 | 827.94
x2 = 0.491 | 869.86 | 865.67 | 861.44 | 857.16 | 852.81 | 848.4 | 843.95
x2 = 0.5806 | 888.19 | 884.08 | 879.93 | 875.71 | 871.44 | 867.11 | 862.72
x2 = 0.648 | 903.57 | 899.55 | 895.48 | 891.35 | 887.16 | 882.91 | 878.59
x2 = 0.7185 | 921.65 | 917.78 | 913.84 | 909.85 | 905.8 | 901.68 | 897.49
x2 = 0.8009 | 944.6 | 941.07 | 937.48 | 933.81 | 930.07 | 926.25 | 922.34
x2 = 0.8813 | 965.96 | 963.49 | 960.85 | 958.06 | 955.13 | 952.05 | 948.82
x2 = 0.9605 | 984.04 | 983.11 | 981.89 | 980.42 | 978.75 | 976.91 | 974.89
